Experimental data published in US5053070A, “Pyrimidine derivatives, preparation processes thereof, herbicide containing the same, and herbicidal compositions containing the same along with other active ingredient” (Mitsui Toatsu Chemicals, Incorporated, priority 1988, dated 1991).

Columns and labels:
Type in all cases: in vivo
Sagittaria pygmaea = test: Treatment of soil under submerged condition, pre-emergence (Test 4); conditions: 30 g ai/a granule, 30 days later
Method: (§1) 1/5000-are Wagner pots were filled with soil. Seeds or tubers of barnyardgrass, Monochoria vaginalis, bulrush, Sagittaria pygmaea, Cyperus seroylnus and Eleocharis kuroguwai were seeded or planted under submerged condition. Two pairs of rice seedlings (2-3 leaf stage), which had been reared in advance, were transplanted to each pot and were allowed to germinate in a green house. Each pair consisted of two rice seedlings. One day later (before emergence of weeds), each pot was treated with a granule which had been prepared by processing a predetermined amount of the test composition in accordance with a similar method to the method described in Formulation Example 9. The state of emergence of weeds and the state of injury of rice were observed 30 days later.
(§2) In the table, the degrees of damages of the test plants and the degrees of injury of rice are shown in a similar manner to Example 2.

barnyardgrass [1] = test: as above; conditions: 30 g ai/a granule, 30 days later
Method: as §1, §2

bulrush = test: as above; conditions: 30 g ai/a granule, 30 days later
Method: as §1, §2

redroot pigweed [2] = test: Upland foliar application test by mixed formulations (Test 7); conditions: Amaranthus retroflexus, 720 h, applied alone, 0.3 kg/ha, 30th day, read-out: Herbicidal effects (%) Redrood pigweed Ea
Summary of the method: (§3)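 Foliar spray of two-compound mixed emulsion, diluted with water, at 5 l per are via ULV sprayer onto weeds at 2–3 leaf stage in upland soil pots, greenhouse. Effect observed 30 days after spraying. Measured mixture activity (Ea) compared with Colby expected value (Ec) derived from single-ingredient growth inhibition rates.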

morningglories = test: as above; conditions: Ipomoea, 720 h, applied alone, 0.3 kg/ha, 30th day, read-out: Herbicidal effects (%) Morningglory Ea
Summary of the method: as §3

barnyardgrass [3] = test: as above; conditions: Echinochloa crus-galli, 720 h, applied alone, 0.3 kg/ha, 30th day, read-out: Herbicidal effects (%) Barnyardgrass Ea
Summary of the method: as §3

green foxtail = test: as above; conditions: Setaria viridis, 720 h, applied alone, 0.3 kg/ha, 30th day, read-out: Herbicidal effects (%) Green foxtail Ea
Summary of the method: as §3

johnsongrass [4] = test: as above; conditions: Sorghum halepense, 720 h, applied alone, 0.3 kg/ha, 30th day, read-out: Herbicidal effects (%) Johnsongrass Ea
Summary of the method: as §3

redroot pigweed [5] = test: Upland foliar application test by mixed formulations, concentration gradient (Test 8); conditions: Amaranthus retroflexus, 960 h, applied alone, 40th day, read-out: Herbicidal effects Redrood pigweed Ea; for pest or weed control at 100 g/ha: 1 g/a; for pest or weed control at 200 g/ha: 2 g/a
Method: (§4) Resin-made 1/10,000-are pots were filled with the soil of an upland field. Redroot pigweed and johnsongrass were separately seeded and were allowed to germinate in a green house. When each plant grew to the stage of 2-3 leaves, emulsions formulated with concentration gradient from predetermined amounts of two test compounds of different kinds in a similar manner to the method described in Formulation Example 16 was diluted with water to a predetermined dilution rate and then sprayed at an application rate equal to 5 l per are onto the foliage of each plant by means of a pressure-operated ULV (ultra low volume) sprayer. Influence to the weeds were observed on the 40th day after the spray of the herbicides. The results are shown in Table 9, In the table, Ea have the same meanings as in Test 7, and Ea>Ec indicates the existence of synergistic action while Ea<Ec indicates the existence of antagonistic action.

johnsongrass [6] = test: as above; conditions: Sorghum halepense, 960 h, applied alone, 40th day, read-out: Herbicidal effects Johnsongrass Ea; for pest or weed control at 100 g/ha: 1 g/a; for pest or weed control at 200 g/ha: 2 g/a
Method: as §4

Question: Which results are given for `COc1cc(OC)nc(Oc2ccccc2C=NOCC=C(C)C)n1` [Compound No. 7]?
Answer: Herbicidal effects Sagittaria Pygmaea (Sagittaria pygmaea): 5 (0-5 (Death)); Herbicidal effects Barnyardgrass (barnyardgrass [1]): 5 (0-5 (Death)); Herbicidal effects Bulrush (bulrush): 4 (6-10 (Severe damages)); pest or weed control at 300 g/ha (redroot pigweed [2]): 30%; pest or weed control at 300 g/ha (morningglories): 10%; pest or weed control at 300 g/ha (barnyardgrass [3]): 30%; pest or weed control at 300 g/ha (green foxtail): 50%; pest or weed control at 300 g/ha (johnsongrass [4]): 40%; pest or weed control at 100 g/ha (redroot pigweed [5]): 10%; pest or weed control at 200 g/ha (redroot pigweed [5]): 50%; pest or weed control at 100 g/ha (johnsongrass [6]): 10%; pest or weed control at 200 g/ha (johnsongrass [6]): 20%

Question: For `COc1cc(OC)nc(Oc2ccccc2C=NOCC=Cc2ccccc2C)n1` [Compound No. 39], which “Herbicidal effects Sagittaria Pygmaea” value (Sagittaria pygmaea) is on record?
Answer: Its value is 4 (6-10 (Severe damages)).

Question: And the “Herbicidal effects Barnyardgrass” value (barnyardgrass [1])?
Answer: The value was 5 (0-5 (Death)).

Question: And the “Herbicidal effects Bulrush” value (bulrush)?
Answer: The value was 4 (6-10 (Severe damages)).

Question: And the pest or weed control at 300 g/ha (redroot pigweed [2])?
Answer: Its pest or weed control at 300 g/ha is 50%.

Question: And the pest or weed control at 300 g/ha (morningglories)?
Answer: The pest or weed control at 300 g/ha was 10%.

Question: What about the pest or weed control at 300 g/ha (barnyardgrass [3]) of the same molecule?
Answer: Its pest or weed control at 300 g/ha is 50%.

Question: What about the pest or weed control at 300 g/ha (green foxtail) of the same molecule?
Answer: Its pest or weed control at 300 g/ha is 50%.

Question: What about the pest or weed control at 300 g/ha (johnsongrass [4]) of the same molecule?
Answer: Its pest or weed control at 300 g/ha is 50%.

Question: What about the pest or weed control at 100 g/ha (redroot pigweed [5]) of the same molecule?
Answer: Its pest or weed control at 100 g/ha is 10%.

Question: And the pest or weed control at 200 g/ha (redroot pigweed [5])?
Answer: Its pest or weed control at 200 g/ha is 30%.

Question: And the pest or weed control at 100 g/ha (johnsongrass [6])?
Answer: The pest or weed control at 100 g/ha was 10%.

Question: What about the pest or weed control at 200 g/ha (johnsongrass [6]) of the same molecule?
Answer: The pest or weed control at 200 g/ha was 20%.
